IC50 and Ki data for five compounds are collected here from patent US10172859B2, “Arylquinazolines” (Merck Patent GmbH, priority 2013, dated 2019).

Like-named read-outs stand apart in the source and are kept apart here.

In data set [1] the target is DNA-PK/protein complex (Homo sapiens (Human), UniProt P78527). Kind of data set: DNA-PK assay (biochemical), flashplate kinase assay. The method, then: A) DNA-PK Assay (Biochemical)
The kinase assay was carried out in streptavidin-coated […] microtitre flashplates. […] The reaction was stopped using 50 μl/well of 200 mM EDTA. After incubation for a further 30 min at room temperature, the liquid was removed. Each well was washed three times with 100 μl of 0.9% saline solution. A nonspecific reaction (blank value) was determined using 10 μM of an innate kinase inhibitor. The radioactivity measurement was carried out using a TopCount. IC50 values were calculated in RS1.

Data set [2] deals with phospho-serine 2056 DNA-PK in HCT116 cells (Homo sapiens (Human), UniProt P78527). Kind of data set: DNA-PK phosphorylation at serine 2056 (cellular), ELISA in bleomycin-treated HCT116 cells. It is filed as cell-based. As to conditions: read-out: IC50 pDNA-PK. The method, then: HCT116 cells were cultivated at 37° C. and 10% CO2 in MEM alpha medium with 10% of foetal calf serum and 2 mM glutamine. The cells were detached from the base of the culture vessels with the aid of trypsin/EDTA, centrifuged off in centrifuge tubes, taken up in fresh medium, and the cell density was determined. 100,000 cells were sown in 1 ml of culture medium per cavity of a 24-well cell culture plate and cultivated overnight. Next day, 10 μM bleomycin (DNA intercalator and inductor of DNA double-strand breaks) and test substances in fresh culture medium were added to the cells, and these were cultivated for a further six hours. […] The 96-well ELISA plates were subsequently treated with a detection antibody (Abcam ab79444: total DNA-PK) and a streptavidin-HRP conjugate. The development of the enzymatic reaction was carried out with the aid of a chemiluminescent reagent, the chemiluminescence was measured with the aid of a Mithras LB940. The signals with the phospho-DNA-PK-specific antibody were standardised to the signal with the antibody against the total protein DNA-PKc. […] The DMSO control was used as blank.
A general note: ELISA stands for enzyme-linked immunosorbent assay.

In data set [3] the target is T1, Kv11.1 (hERG) channel (Homo sapiens (Human), UniProt Q12809). The data set can be described thus: Kv11.1 (hERG) ion channel activity (patch clamp assay). Background: Block of hERG is tested as a sign of cardiac risk.
T1 sequence (Q12809 whole entry): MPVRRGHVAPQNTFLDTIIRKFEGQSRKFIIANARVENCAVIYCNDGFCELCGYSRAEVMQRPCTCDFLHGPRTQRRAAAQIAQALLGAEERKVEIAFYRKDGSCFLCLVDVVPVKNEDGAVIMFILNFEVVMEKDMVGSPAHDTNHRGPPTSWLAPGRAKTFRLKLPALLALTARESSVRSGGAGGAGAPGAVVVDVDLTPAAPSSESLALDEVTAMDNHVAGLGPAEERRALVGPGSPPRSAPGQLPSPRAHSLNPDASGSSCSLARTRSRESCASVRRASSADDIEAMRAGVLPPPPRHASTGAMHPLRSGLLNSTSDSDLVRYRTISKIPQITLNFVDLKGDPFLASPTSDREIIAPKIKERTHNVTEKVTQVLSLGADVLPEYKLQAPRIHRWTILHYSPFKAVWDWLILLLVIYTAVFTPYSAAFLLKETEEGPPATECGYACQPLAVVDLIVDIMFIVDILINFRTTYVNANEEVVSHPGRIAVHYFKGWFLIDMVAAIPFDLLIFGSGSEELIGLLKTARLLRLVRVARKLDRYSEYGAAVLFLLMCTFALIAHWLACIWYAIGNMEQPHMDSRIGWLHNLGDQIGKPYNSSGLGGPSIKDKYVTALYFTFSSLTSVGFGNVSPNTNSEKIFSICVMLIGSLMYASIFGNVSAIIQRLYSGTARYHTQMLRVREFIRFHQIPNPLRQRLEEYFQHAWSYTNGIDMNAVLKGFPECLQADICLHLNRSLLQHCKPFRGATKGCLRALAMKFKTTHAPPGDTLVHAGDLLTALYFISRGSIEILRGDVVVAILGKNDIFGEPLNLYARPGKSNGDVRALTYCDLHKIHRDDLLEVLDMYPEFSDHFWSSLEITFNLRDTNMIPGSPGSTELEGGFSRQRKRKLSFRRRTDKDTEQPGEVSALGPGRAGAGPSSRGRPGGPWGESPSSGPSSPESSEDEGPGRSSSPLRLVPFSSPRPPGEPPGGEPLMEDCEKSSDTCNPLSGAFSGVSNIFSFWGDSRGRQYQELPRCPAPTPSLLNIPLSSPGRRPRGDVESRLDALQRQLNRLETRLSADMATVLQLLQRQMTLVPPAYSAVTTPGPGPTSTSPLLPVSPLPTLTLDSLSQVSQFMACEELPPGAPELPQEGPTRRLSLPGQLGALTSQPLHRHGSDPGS
Description: (§1) C) Kv11.1 (hERG) ION CHANNEL ACTIVITY (Patch Clamp Assay)
(§2) The patch-clamp measurement was carried out at room temperature in whole-cell configuration on human embryonic kidney cells (HEK293) which have been transfected in a stable manner with the hERG gene.
(§3) The whole-cell configurations were carried out using an automated patch clamp device (Patchliner™, Nanion Technologies, Munich). This is a glass chip-based system with which automated whole-cell measurements on up to 8 cells simultaneously are possible. The glass chip has a hole of defined size to which the cell is transferred into the Gigaseal by application of a reduced pressure and brought into the whole-cell configuration. Buffer, cell suspension and test substances were added to microchannels of the chip using a Teflon-coated pipette. The cells were clamped to a holding potential of −80 mV. For measurement of substancepromoted inhibition of the Kv11.1 channel, the following voltage protocol was applied at 10-second intervals: 51 ms/−80 mV, 500 ms/+40 mV, 500 ms/−40 mV, 200 ms/−80 mV. The leakage current is subtracted by means of the P4 method. The cells were resuspended in extracellular buffer (EC) and applied to the chip. After the cell had been collected, the seal was improved by addition of a seal enhancer buffer. As soon as the whole-cell configuration had been reached, the seal enhancer buffer was washed out and replaced by extracellular buffer. The measurement started in EC for 1.5 min. DMSO (vehicle control, 0.1% of DMSO) was then applied, and the control current was recorded for 3 min. The test substance was subsequently added twice in the same concentration, and the potassium current was measured for 3.5 min in each case.
(§4) The reference substance used was the Kv11.1 (hERG) ion channel blocker quinidine. The effects of test substances and quinidine were standardised to the associated vehicle control. The effect on the Kv11.1 (hERG) channel activity was assessed from the potassium current at −40 mV. For the calculation, the current was evaluated for the respective final trace.
(§5) During the measurement, an aliquot of the test substance was taken for concentration determination. The sample was measured immediately by HPLC, and the final concentration was determined from a calibration curve.
The target of data set [4] is T1, Kv11.1 (hERG) channel.
Description: as §1, §2, §3, §4, §5
[5] abbreviates: cellular, HCT116, 10 μM bleomycin, six hours.

In the case of `COc1nnc(Cl)cc1C(O)c1ccc(F)c(-c2ncnc3cc(N4CCOCC4)ccc23)c1` (centres unmarked) [Example 9], the IC50 (usually the concentration at which inhibition is half-maximal) was 3 to 7 nM in data set [1] (enzymatic, 5 μM ATP) and less than 0.5 µM in data set [2] (setting [5]). Also, in data set [3] (read-out: Ki [Kv1.11 hERG], HEK293 transfected with hERG gene, whole-cell), the Ki (usually a dissociation constant, usually derived from enzyme kinetics or from competition with a known ligand) was less than 10 µM.

In data set [4], `CCNCc1csc(C(O)c2cc(-c3ncnc4cc(N5CCOCC5)ccc34)c(F)cc2Cl)n1` (centres unmarked) [Example 190] registered an inhibition constant (Ki) of 15 to 25 µM.

On to `Cn1nccc1C(O)c1ccc(F)c(-c2nc(Cl)nc3cc(N4CCOCC4)ccc23)c1` (centres unmarked) [Example 214, [3-(2-Chloro-7-morpholin-4-yl-quinazolin-4-yl)-4-fluoro-phenyl]-(2-methyl-2H-pyrazol-3-yl)-methanol], for which the IC50 in data set [1] (enzymatic, 5 μM ATP) lay in the range of 3 to 7 nM; in data set [2] (setting [5]), 10 to 30 µM. In data set [3], this compound yielded a Ki of 15 to 25 µM.

For the compound `COc1nccnc1C(C(N)=O)c1cc(-c2ncnc3cc(N4CCOCC4)ccc23)ccc1F` (centres unmarked) [Example 316], the IC50 was more than 30 nM in data set [1] (biochemical DNA-PK assay) and 5 to 10 µM in data set [2] (DNA-PK phosphorylation at serine 2056, HCT116 cells). The compound further registered an inhibition constant (Ki) in data set [3] of 15 to 25 µM.

As for `OC(c1ccc(F)c(-c2ncnc3cc(N4CCOCC4)ccc23)c1)c1nccnc1I` (centres unmarked) [Example 462, [4-Fluoro-3-(7-morpholin-4-yl-quinazolin-4-yl)-phenyl]-(3-iodo-pyrazin-2-yl)-methanol], the Ki in data set [3] (read-out: Ki [Kv1.11 hERG], hERG patch clamp assay) is 15 to 25 µM.
